Values quoted from earlier work as cited in patent US20060159689A1, “Combinations of tumor-associated antigens in diagnostics for various types of cancers” (priority 2004, published 2006).

Test system: VEGF-A
Conditions: colorectal, lung, breast, ovarian carcinoma and other cancers

VEGF-A, sequence (P15692 207-311 limits assumed): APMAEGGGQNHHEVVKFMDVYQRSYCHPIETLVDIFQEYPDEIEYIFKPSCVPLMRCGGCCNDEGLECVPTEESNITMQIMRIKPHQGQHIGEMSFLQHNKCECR

bevacizumab
effect on tumor progression and metastatic disease: control of tumor progression and metastatic disease
